Assay type in all cases: cell-based, human
The subject of one assay is MYB. As to the kind of experiment: HiBiT protein abundance assay, MYB HiBiT K562 cell line. The settings on record: 24 hours, top dose 10 μM. A digest of the protocol:
(§1)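 Endogenous targets in K562 knock-in lines carried a HiBiT tag and were treated for 24 h at 37 °C with 10-point 3-fold dilutions (top 10 μM final, DMSO ≤0.25%). Abundance was read as lytic Nano-Glo HiBiT luminescence. IC50 came from a four-parameter logistic fit of normalized response.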

The subject of a further assay is HTT. As to the kind of experiment: HiBiT protein abundance assay, HTT HiBiT K562 cell line. Particulars: 24 hours, top dose 10 μM. The gist of the method:
as §1

The subject of another assay is HTT mRNA. As to the kind of experiment: RT-qPCR splicing assay, HTT canonical junction (CJ) and alternative junction (AJ) mRNA. Particulars: Homo sapiens; for AC50: increase in HTT alternative junction (AJ) mRNA, read-out: HTT AJ AC50. A digest of the protocol: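 A673 or K562 cells were treated for 24 h at 37 °C with an 11-point 3-fold compound dilution series (top final concentration 10 uM, DMSO ≤0.25%). After lysis, one-step TaqMan RT-qPCR quantified junction transcripts, normalized to PPIA for A673 or to GAPDH/GUSB for K562.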

Where [1] appears, read: HiBiT K562 cell line, read-out: Effect on protein abundance, MYB (IC50 category).
Setting [2] is: HiBiT K562 cell line, read-out: Effect on protein abundance, HTT (IC50 category).
Setting [3] is: decrease in HTT canonical junction (CJ) mRNA, RT-qPCR, read-out: HTT CJ IC50.
Where [4] appears, read: Table 5 panel, canonical junction qPCR, compound concentration having 50% response in CJ decrease, read-out: HTT IC50 (decrease in CJ mRNA levels).
[5] abbreviates: HiBiT lytic detection, modified K562 cells, read-out: Effect on protein abundance, MYB (IC50).
Where [6] appears, read: HiBiT lytic detection, modified K562 cells, read-out: Effect on protein abundance, HTT (IC50).

Read-outs that look alike come from different tables or passages of the source.

Results on nine compounds are retold here after patent US20250332173A1, “COMPOUNDS AND METHODS FOR MODULATING NUCLEIC ACID SPLICING” (REMIX THERAPEUTICS INC., priority 2021, published 2025).

With `CC(=O)Nc1cc(-c2cc(C)c3nc(C)cn3n2)cc2ccn([C@H]3CCNC3)c(=O)c12` [Compound 649, N-[6-(2,8-dimethylimidazo[1,2-b]pyridazin-6-yl)-1-oxo-2-[(3S)-pyrrolidin-3-yl]-8-isoquinolyl]acetamide], the IC50 with MYB (setting [1]), in the assay on HTT (setting [2]), in the assay on HTT mRNA (setting [3]) and in the assay on HTT mRNA (setting [4]) was 1000 to 10000 nM each time. Besides, the AC50 in the assay with HTT mRNA (RT-qPCR) is 1000 to 10000 nM.

Turning to `CC(=O)Nc1cc(-c2cc(C)c3nc(C)cn3n2)cc2ccn([C@@H]3CCNC3)c(=O)c12` [Compound 650, N-[6-(2,8-dimethylimidazo[1,2-b]pyridazin-6-yl)-1-oxo-2-[(3R)-pyrrolidin-3-yl]-8-isoquinolyl]acetamide], the IC50 in the assay on MYB (setting [1]), in the assay with HTT (setting [2]), in the assay with HTT mRNA (setting [3]) and in the assay with HTT mRNA (setting [4]) was over 10000 nM in each case. Also, the AC50 with HTT mRNA (RT-qPCR) was over 10000 nM.

Turning to `Cc1cn2cc(-c3cc(F)c4c(=O)n(C5CC(C)NC(C)C5)ccc4c3)cc(F)c2n1` (stereo not drawn) [Compound 651], the IC50 in the assay with MYB (setting [1]) was under 100 nM; in the assay on HTT (setting [2]), under 100 nM; in the assay on HTT mRNA (setting [3]), 100 to 1000 nM; with HTT mRNA (setting [4]), under 100 nM. The concentration at half-maximal activity (AC50) with HTT mRNA (RT-qPCR) was under 100 nM.

For the compound `Cc1cn2cc(-c3cc(F)c4c(=O)n([C@H]5CNC[C@H]5C)ccc4c3)cc(F)c2n1` [Compound 652, 8-fluoro-6-(8-fluoro-2-methyl-imidazo[1,2-a]pyridin-6-yl)-2-[(3R,4R)-4-methylpyrrolidin-3-yl]isoquinolin-1-one], the IC50 in the assay on MYB (setting [1]) is 1000 to 10000 nM; with HTT (setting [2]) it was over 10000 nM; in the assay with HTT mRNA (setting [3]), over 10000 nM; with HTT mRNA (setting [4]) it was over 10000 nM. Besides, in the assay on HTT mRNA (RT-qPCR), the AC50 was over 10000 nM.

Regarding `Cc1cn2cc(-c3cc(F)c4c(=O)n([C@@H]5CNC[C@@H]5C)ccc4c3)cc(F)c2n1` [Compound 653, 8-fluoro-6-(8-fluoro-2-methyl-imidazo[1,2-a]pyridin-6-yl)-2-[(3S,4S)-4-methylpyrrolidin-3-yl]isoquinolin-1-one], the IC50 was 1000 to 10000 nM in the assay on MYB (setting [1]), over 10000 nM with HTT (setting [2]), over 10000 nM with HTT mRNA (setting [3]) and over 10000 nM in the assay with HTT mRNA (setting [4]). Also, in the assay with HTT mRNA (RT-qPCR), the AC50 was over 10000 nM.

Regarding `Cn1cc2cc(-c3ncc4c(=O)n(C5CCNCC5)ccc4n3)c(O)c(F)c2n1` [Compound 1123], the IC50 in the assay with MYB (setting [1]) is under 100 nM; with HTT (setting [2]) it was under 100 nM; in the assay on HTT mRNA (setting [3]), 100 to 1000 nM; in the assay on HTT mRNA (setting [4]), under 100 nM. The AC50 in the assay on HTT mRNA (RT-qPCR) was under 100 nM.

As to `CNC1CCN(c2ccc3cc(-c4cc(C)c5nc(C)cn5n4)ccn3c2=O)C1` (stereo not drawn) [Compound 1158], the half-maximal inhibitory concentration (IC50) in the assay on MYB (setting [5]) was 100 to 1000 nM; in the assay with HTT (setting [6]) it was 100 to 1000 nM; in the assay on HTT mRNA (setting [3]), 1000 to 10000 nM; in the assay with HTT mRNA (setting [4]) it was 100 to 1000 nM. For the same compound, the AC50 with HTT mRNA (RT-qPCR) fell in the range of 100 to 1000 nM.

Turning to `Cc1cn2nc(-c3ccn4c(=O)c(C5CCNCC5)ccc4c3)cc(C)c2n1` [Compound 1181], the IC50 with MYB (setting [5]), in the assay with HTT (setting [6]), in the assay with HTT mRNA (setting [3]) and in the assay on HTT mRNA (setting [4]) was under 100 nM in each case. For the same compound, the AC50 in the assay on HTT mRNA (RT-qPCR) is under 100 nM.

`Cc1cn2nc(-c3ccn4c(=O)c(C5=CCNCC5)ncc4c3)cc(C)c2n1` [Compound 1182]: the IC50 in the assay with MYB (setting [5]), with HTT (setting [6]), in the assay on HTT mRNA (setting [3]) and in the assay on HTT mRNA (setting [4]) was 100 to 1000 nM throughout. In the assay on HTT mRNA (RT-qPCR), the AC50 was 100 to 1000 nM.
